Assay [1] has as its system Neospora caninum. Nature of the assay: Anti-N. caninum total IgG in the serum by ELISA, prophylactically treated infected mice. It is filed as in vivo. The protocol: (§1) Female Wt C57BL/6-mice, age at the time of treatment: 7½ weeks.
(§2) Neospora caninum tachyzoites were passaged through VERO cells, and isolated by column chromatography, and aliquots with concentrations of 2×10^6 parasites/100 μl were prepared in sterile PBS.
(§3) Pure toltrazuril active compound was made up as a stock solution with 50 mg/10 ml H2O+100 μl Cremophor. 0.5 mg of pure active compound were present Der application in 0.1 ml of this solution. In a mouse of 20 g, this corresponds to a use concentration of 25 mg/kg. The substances were administered perorally by gavage on 6 successive days, which corresponds to a total uptake of […].
(§4) Toltrazuril 2.5% formulated solution (100 ml solution contain: 2.50 g toltrazuril, 30.00 g triethanolamine, 80.70 g polyethylene glycol; the components are simply mixed): 6.25 ml of the 2.5% solution were diluted in 250 ml of water and administered to the mice on 6 successive days via the drinking water.
(§5) Four hours after the start of the prophylactic treatment, each mouse was infected with 2×10^6 parasite stages/100 μl sterile PBS.
14 days post-infection, the test mice were sacrificed using CO2. They were numbered randomly to maintain a random sequence during evaluation (blind evaluation). To obtain serum, blood was taken from the myocardium. The brain was dissected carefully, and one half was stored at −80° C. for the PCR analysis. The remainder was fixed in 4% paraformaldehyde/PBS for immunohistological studies (IFAT).
Anti-N. caninum total immunoglobulin G (IgG) was determined by ELISA following the method of Eperon et al., 1999, Parasite Immunology 21:225-236. Treated groups were compared with an uninfected and an infected control group. The positive control mouse was inoculated with a crude extract of N. caninum tachyzoites and subsequently infected with 10^6 N. caninum stages. The parasite-specific IgG values were particularly high in this mouse.
In general terms: ELISA stands for enzyme-linked immunosorbent assay.

Assay [2] concerns Neospora caninum. Kind of assay: Neospora caninum-specific PCR on brain DNA of infected mice. It is filed as in vivo. Conditions: prophylactic treatment, pure active compound 25 mg/kg/day p.o. As for the experimental part:
as §1, §2, §3, §4, §5
14 days post-infection, the test mice were sacrificed using CO2. They were numbered randomly to maintain a random sequence during evaluation (blind evaluation). To obtain serum, blood was taken from the myocardium. The brain was dissected carefully, and one half was stored at −80° C. for the PCR analysis. […]

The subject of assay [3] is Neospora caninum. Kind of assay: Testing substances on infected Neospora caninum cell cultures (VERO cell monolayer, microscopical assessment). It is filed as cell-based. Further details: key: 0 = no effect; 1 = some effect; 2 = full action; T = cytotoxic. To be noted: 4 days after beginning of treatment, 5 days post-infection. The protocol:
Neospora caninum is an obligatory intracellular parasite. VERO cells (African green monkey kidney cells, ATCC No.: CCL 81 Vero) were used as an aid to cause the parasite to reproduce under conditions capable of standardization and definition. Vero cells were grown in the following medium: 87% […] (ICN, 12-602-54) 10% FCS (fetal calf serum, ICN, 29-101-49) 1% 200 mM L-glutamine (ICN, 15-801-13) 1% sodium bicarbonate (ICN, 16-883-49) 1% penicillin/streptomycin (ICN, 16-700-49). Noninfected cultures were maintained and passaged in 25 cm^2 (Falcon, B 769031) and 75 cm^2 (Falcon, B 769051) tissue culture flasks. Vero cells were grown at 37° C. in a 5% CO2 atmosphere in a CO2 incubator (Heraeus) until a cell monolayer was obtained.
The following Neospora caninum isolates were used for the infection of cell cultures: NC-1 (canine isolate DUBEY (1988) and NC Swe B-1/9th passage (bovine isolate; National Veterinary Institute Uppsala, Sweden). The infection materials used were infected cell cultures from the nitrogen storage (see above) or purified tachyzoites of infected cultures (see below).
Neospora caninum was isolated from infected VERO or ED monolayers under sterile conditions. First, infected cell cultures were detached from the flask bottom using a spatula (Tec No Mara, 3010) and, using a 23-gauge cannula (Luer 23 Gx1, 0.6×25 mm) drawn into a 10 ml disposable syringe. During this procedure, host cells and tissue cysts contained therein were destroyed mechanically. The cell suspension was subsequently centrifuged for 7 minutes at 1 500 rpm (Varifuge 3.0, Heraeus), the supernatant was discarded, and the sample pellet was resuspended in precisely 2.5 ml of physiological phosphate buffer (PBS: 1 mM PO4, 12 mM NaCl, 0.87 mM KCL, pH 7.4). The next isolation step was performed using a Sephadex column (PD-10™/Sephadex G-25 M, Pharmacia Biotech, 17-0851). The column was first equilibrated with 25 ml of PBS, the sample volume was applied in 2.5 ml of PBS, and elution was then effected with 5 ml of PBS. […]

The test system of assay [4] is Neospora caninum. Nature of the assay: Immunofluorescence test (IFAT) on brain sections of infected mice. The assay is classed as in vivo. Set-up: key: Score (−)=no tachyzoites; Score (+)=less than 10 tachyzoites; Score (++)=between 10 and 200 tachyzoites; Score (+++)=more than 200 parasites. Conditions: brain sections of individual mice; 25 mg/kg/day p.o. on 6 successive days; day 14 p.i. As for the experimental part: as §1, §2, §3, §4, §5
14 days post-infection, the test mice were sacrificed using CO2. They were numbered randomly to maintain a random sequence during evaluation (blind evaluation). […]
The entire sections were studied for the assessment. Any stages of the parasite present were counted, and the following scores were used: […]

Assay [5] relates to Neospora caninum. Conditions: experimentally infected mice, administered via the drinking water, cited from earlier work.
Assay [6] concerns Neospora caninum. To be noted: dogs; treatment with sulfadiazine and clindamycin together; cited from earlier work.

The text below walks through data of US9399037B2, “Triazinone compounds for treating diseases resulting from infestation with parasitic protozoans” (Bayer Intellectual Property GmbH, priority 1999, dated 2016).

Values joined by “and” are separate entries in the source; they are usually repeats but may differ in a detail not shown here. Equal values may be shown once. Read-outs that look alike come from different tables or passages of the source.

As to `Cc1cc(-n2c(=O)[nH]c(=O)n(C)c2=O)ccc1Oc1ccc(SC(F)(F)F)cc1` [Toltrazuril, toltrazuril], the “OD mean (anti Neospora IgG in the serum)” value in assay [1] (group mean, 7 mice, 25 mg/kg/day p.o. on 6 successive days, day 14 p.i.) amounted to 0.1689. The “OD (anti Neospora IgG in the serum)” value in assay [1] (individual C57BL/6 mice, 25 mg/kg/day p.o. on 6 successive days from 4 h before infection, day 14 p.i., 25 mg/kg/day) is 0.338 and 0.271 and 0.056 and 0.066 and 0.18 and 0.103 and 0.168. Besides, in assay [1] (mice, pure active compound 25 mg/kg/day p.o.), the “concentration of Neospora caninum-specific IgG antibodies compared with infected and untreated control groups” value is listed as “reduced concentration”. Moreover, in assay [2], the “mice PCR-negative in the group” value is 4/7. Moreover, the “Efficacy against Neospora caninum in VERO cells (assessment of monolayer)” value came to 1 in assay [3] (10 ppm), 2 in assay [3] (25 ppm) and 2 in assay [3] (50 ppm). For the same molecule, the IFAT result in assay [4] is “−”.
Take `Nc1ccc(S(=O)(=O)Nc2ncccn2)cc1` [sulfadiazine]: the effectiveness of treatment result in assay [5] (later start of the treatment) was “without success”; in assay [5] (start prior to infection, clinical symptoms prevented without parasitological recovery), “only effective when the treatment was started prophylactically”. Also, the success of treatment result in assay [6] is recorded as “only has a chance of success when it starts very early”.
